{"source": "paper PMC3853024", "about": "“Aromatase inhibitor treatment with an intravaginal device and its effect on pre-ovulatory ovarian follicles in a bovine model” (Reproductive Biology and Endocrinology : RB&E, 2013)", "key": {"[1]": {"tested_on": "plasma FSH", "assay": "Plasma FSH concentration (radioimmunoassay) in treated heifers", "assay_type": "in vivo, cattle (Hereford-cross beef heifers)", "conditions": "n=15, P=0.1", "protocol": "Heifers in which a CL was detected were given two luteolytic doses of PGF (12 h apart) and monitored by ultrasonography for ovulation. Five to eight days later, the two largest ovarian follicles were ablated by transvaginal ultrasound-guided follicular aspiration to synchronize follicular wave emergence which was expected to occur 1 to 1.5 days later. Prostaglandin (500 μg cloprostenol, Estrumate, Schering-Plough Animal Health, Pointe-Claire, QC, Canada) was given intramuscularly at 60 and 72 h after follicular ablation to induce regression of the CL and shift from a non-ovulatory to an ovulatory follicular wave. […] Devices were inserted on Day 1 and were kept in place until Day 7 or until ovulation was detected, which ever occurred first. […]\nPlasma FSH concentrations were determined in duplicate using a double-antibody radioimmunoassay using NIDDK-anti-oFSH-1 primary antibody and expressed as USDA bovine FSH-Il units. […] All samples were analyzed in a single assay; the intra-assay coefficients of variation were 7.9 and 6.5%, for low (mean, 2.4 ng/mL) and high reference samples (mean 4.9 ng/mL), respectively. […]"}, "[2]": {"assay": "Pharmacokinetics of a letrozole-containing intravaginal device in heifers (plasma letrozole by LCMS/MS)", "assay_type": "in vivo, cattle (Hereford-cross beef heifers)", "conditions": "for half-life: read-out: Half-life (T1/2) (converted); for Cmax: read-out: Maximal concentration (Cmax); for MRT: read-out: Mean residence time (MRT); for clearance: read-out: Systemic clearance (ClS) (converted); for Vd/F: read-out: Volume of distribution (Vz/f)", "protocol": "Intravaginal devices were prepared using a Cue-Mate spine (Bioniche Animal Health, Bellville, ON, Canada) assembled with two blank (progesterone-free) silicone pods that were coated with a gel-based vehicle containing letrozole or vehicle only (control). The vehicle contained the following (all ingredients % w/w): letrozole 10%, gelatin 20% (Gelatin type B, Fisher Scientific, Pittsburgh, PA, USA), polymer 65% (prepared by mixing distilled water 68%, Poloxamer 188 12% and Poloxamer 407 20%, both from Spectrum Chemical, New Brunswick, NJ, USA) and distilled water 5%.\nBlood samples were collected by coccygeal venipuncture into 10 mL heparinized vacuum tubes (Becton Dickinson Vacutainer Systems, Franklin Lakes, NJ, USA). Samples were collected daily from pre-treatment follicular wave emergence (Day 0) to 12 days after the subsequent ovulation. In a subset of letrozole-treated animals (n=4), frequent blood samples were collected using an in-dwelling jugular catheter, as previously described, at the time of catheter placement and 0, 10, 20, 30 min, 1, 1.5, 2, 3, 4, 6, 8, 12 and 24 h after treatment for measurement of plasma letrozole concentration. Blood samples were centrifuged at 1500 × g for 20 min and plasma was separated and stored in plastic tubes at -20°C.\nPlasma letrozole concentrations were quantified using liquid chromatography tandem mass spectrometry (LCMS/MS), as described. Briefly, letrozole was extracted from […] with […] of 0.1M ammonium acetate followed by the addition of 5 mL methyl t-butyl ether (MTBE) and vortexed for 15 s. The organic layer was removed and transferred to a fresh 15 mL plastic tube and dried by gentle nitrogen gas flow. The dried extract was reconstituted in 1 mL of 100% ethanol. Separation was accomplished by HPLC (Agilent 1200; Agilent, Santa Clara, CA, USA) fitted with an analytical column (50 × 2.1 mm, […] particle size; Betasil C18; Thermo Scientific, Waltham, MA, USA) operated at 35°C. Mass spectra were collected using a tandem mass spectrometer (SCIEX 3000; Applied Bioscience, Foster City, CA, USA) fitted with an electrospray ionisation source, operated in the negative ionisation mode. Quantification was performed using Analyst 1.4.1 software provided by SCIEX (Applied Bioscience). The minimum and maximum values along the standard curve were 0.25 and 500 ng/mL, respectively. The limit of quantification used in this method was 0.25 ng/mL and the mean recovery was 70%.\nThe following pharmacokinetic parameters were determined: Cmax (maximum observed plasma concentration of letrozole), tmax (time to reach Cmax), t1/2 (terminal elimination half-life), AUC (area under the plasma letrozole concentration-time curve from zero to infinity calculated as AUCtlast). The concentration of letrozole in plasma as a function of time (C–t) data for each heifer was analyzed by non-compartmental techniques using a computer modeling program (WinNonLin Standard Edition Version 2.1, Pharsight Corporation, Mountain View, CA, USA). Peak letrozole concentration in plasma (Cmax) and time to peak letrozole concentration (tmax) were determined using observed values. The apparent terminal rate constant (λ) was determined by linear regression of the last 6–8 points on the terminal phase of the logarithmic plasma concentration vs time curve. The area under the C–t curve until the final plasma sample (AUClast) was determined using the linear trapezoidal rule. The total area under the curve extrapolated to infinity (AUC0-∞) was calculated by adding the Clast obs/λ + AUClast. The terminal half-life (T1/2λ) was calculated as ln2 ⁄λ. The mean residence time (MRT) was calculated as the area under the moment curve extrapolated to infinity (AUMC0-∞) ⁄AUC0-∞. Systemic clearance (ClS) was determined using the dose divided by AUC0-inf. The apparent volume of distribution (Vλ/f) was calculated by clearance divided by λ. […]"}, "[3]": {"conditions": "Mean of 4 heifers, intravaginal device 1 g letrozole"}, "[4]": {"conditions": "female, Hereford-cross, bovine, plasma, 1 g, Heifer 1, intravaginal device 1 g letrozole"}, "[5]": {"conditions": "female, Hereford-cross, bovine, plasma, 1 g, Heifer 2, intravaginal device 1 g letrozole"}, "[6]": {"conditions": "female, Hereford-cross, bovine, plasma, 1 g, Heifer 3, intravaginal device 1 g letrozole"}, "[7]": {"conditions": "female, Hereford-cross, bovine, plasma, 1 g, Heifer 4, intravaginal device 1 g letrozole"}, "[8]": {"conditions": "female, Hereford-cross, bovine, plasma, 1 g, Mean of 4 heifers, intravaginal device 1 g letrozole"}}, "note": "Like-named read-outs stand apart in the source and are kept apart here."}
{"smiles": "N#Cc1ccc(C(c2ccc(C#N)cc2)n2cncn2)cc1", "note": "[Letrozole]", "values": [{"measurement": "Plasma FSH concentrations versus control", "setting": "[1]", "result": "tendency for lower"}, {"measurement": "Area under the curve (AUClast)", "setting": "[2]; Heifer 1, intravaginal device 1 g letrozole", "result": 3538.1, "unit": "hours x ng/mL"}, {"measurement": "Area under the curve (AUClast)", "setting": "[2]; Heifer 2, intravaginal device 1 g letrozole", "result": 2697.7, "unit": "hours x ng/mL"}, {"measurement": "Area under the curve (AUClast)", "setting": "[2]; Heifer 3, intravaginal device 1 g letrozole", "result": 2583.1, "unit": "hours x ng/mL"}, {"measurement": "Area under the curve (AUClast)", "setting": "[2]; Heifer 4, intravaginal device 1 g letrozole", "result": 1698.0, "unit": "hours x ng/mL"}, {"measurement": "Area under the curve (AUClast)", "setting": "[2]; [3]", "result": 2629.2, "unit": "hours x ng/mL"}, {"measurement": "Half-life (T1/2)", "setting": "[2]; [3]", "result": 33.3, "unit": "h"}, {"measurement": "half-life", "setting": "[2]; [4]", "result": 35.1, "unit": "h"}, {"measurement": "Cmax", "setting": "[2]; [4]", "result": 32.4, "unit": "ng/mL"}, {"measurement": "MRT", "setting": "[2]; [4]", "result": 71.5, "unit": "h"}, {"measurement": "clearance", "setting": "[2]; [4]", "result": 1.67, "unit": "mL/min/kg"}, {"measurement": "Vd/F", "setting": "[2]; [4]", "result": 6.2, "unit": "L/kg"}, {"measurement": "half-life", "setting": "[2]; [5]", "result": 20.4, "unit": "h"}, {"measurement": "Cmax", "setting": "[2]; [5]", "result": 35.3, "unit": "ng/mL"}, {"measurement": "MRT", "setting": "[2]; [5]", "result": 56.2, "unit": "h"}, {"measurement": "clearance", "setting": "[2]; [5]", "result": 3.33, "unit": "mL/min/kg"}, {"measurement": "Vd/F", "setting": "[2]; [5]", "result": 4.9, "unit": "L/kg"}, {"measurement": "half-life", "setting": "[2]; [6]", "result": 41.9, "unit": "h"}, {"measurement": "Cmax", "setting": "[2]; [6]", "result": 27.3, "unit": "ng/mL"}, {"measurement": "MRT", "setting": "[2]; [6]", "result": 65.5, "unit": "h"}, {"measurement": "clearance", "setting": "[2]; [6]", "result": 3.33, "unit": "mL/min/kg"}, {"measurement": "Vd/F", "setting": "[2]; [6]", "result": 9.9, "unit": "L/kg"}, {"measurement": "half-life", "setting": "[2]; [7]", "result": 35.7, "unit": "h"}, {"measurement": "Cmax", "setting": "[2]; [7]", "result": 31.7, "unit": "ng/mL"}, {"measurement": "MRT", "setting": "[2]; [7]", "result": 48.7, "unit": "h"}, {"measurement": "clearance", "setting": "[2]; [7]", "result": 5, "unit": "mL/min/kg"}, {"measurement": "Vd/F", "setting": "[2]; [7]", "result": 13.2, "unit": "L/kg"}, {"measurement": "half-life", "setting": "[2]; [8]", "result": 33, "unit": "h"}, {"measurement": "Cmax", "setting": "[2]; [8]", "result": 31.7, "unit": "ng/mL"}, {"measurement": "MRT", "setting": "[2]; [8]", "result": 60.5, "unit": "h"}, {"measurement": "clearance", "setting": "[2]; [8]", "result": 3.33, "unit": "mL/min/kg"}, {"measurement": "Vd/F", "setting": "[2]; [8]", "result": 8.5, "unit": "L/kg"}, {"measurement": "bioavailability", "setting": "[2]; female, Hereford-cross, bovine, plasma, other: intravaginal device, 1 g, Mean, intravaginal device AUClast versus single iv injection AUClast (unpublished data), corrected by dose", "result": 16, "unit": "%"}, {"measurement": "Tmax", "setting": "[2]; female, Hereford-cross, bovine, plasma, other: intravaginal device, 1 g, post-device insertion, n=4, read-out: Time of maximal concentration in plasma (tmax)", "result": 24, "unit": "h"}, {"measurement": "Duration of letrozole release from the intravaginal device", "setting": "[2]; post-insertion, inferred from plasma letrozole concentration profile", "result": 24, "unit": "h"}]}
